Results on 15 compounds are retold here after patent US11873303B2, “Substituted pyrazoles as type II IRAK inhibitors” (Merck Patent GmbH, priority 2018, dated 2024).

Some results are limits rather than exact numbers.

As usually defined, the IC50 is the midpoint of a concentration-inhibition curve.

In assay [1] the target is T1, IRAK4 (human purified recombinant enzyme His-TEV-IRAK4 (1-460)) (Homo sapiens, UniProt Q9NWZ3).
T1 construct: His-TEV-IRAK4 (1-460); His (N); TEV cleavage site (N)
T1 sequence (Q9NWZ3 1-460): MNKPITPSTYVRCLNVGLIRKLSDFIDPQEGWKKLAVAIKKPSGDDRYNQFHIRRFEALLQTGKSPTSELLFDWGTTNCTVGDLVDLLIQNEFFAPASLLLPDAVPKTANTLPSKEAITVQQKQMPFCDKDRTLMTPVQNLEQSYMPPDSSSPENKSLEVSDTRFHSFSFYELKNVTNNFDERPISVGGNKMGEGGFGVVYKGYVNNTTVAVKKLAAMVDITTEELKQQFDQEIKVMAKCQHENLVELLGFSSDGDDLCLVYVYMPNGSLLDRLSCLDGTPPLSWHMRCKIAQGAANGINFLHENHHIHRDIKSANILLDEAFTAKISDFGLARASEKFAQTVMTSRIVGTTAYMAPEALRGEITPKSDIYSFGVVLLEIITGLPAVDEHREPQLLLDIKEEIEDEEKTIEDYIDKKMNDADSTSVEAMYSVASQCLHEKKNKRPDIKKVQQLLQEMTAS
Put plainly: IRAK4 enzymatic assay (ADP-Glo luminescence). The assay is classed as biochemical. To be noted: human recombinant IRAK4, ATP 2 μM, STK1-biotin peptide. The method, then:
IRAK4 is a human purified recombinant enzyme (His-TEV-IRAK4 (1-460)). In this assay, IRAK4 hydrolysed ATP, autophosphorylated and phosphorylated a Serine/Threonine generic peptidic substrate (STK: 61ST1BLC from CisBio International). Measurement of IRAK-4 inhibition was performed in 384-well format based on a luminescence assay (ADP-Glo™ Kinase Assay from Promega). Purified human recombinant IRAK4 (0.3 μg/ml) and serial diluted compounds in DMSO (range of concentration from 10 μM to 0.5 nM) or controls (1% DMSO) were incubated for 15 minutes at RT in assay buffer containing 50 mM Hepes pH 7.0, Fatty acid-free BSA 0.1%, Dithiothreitol (DTT) 2 mM, MgCl2 10 mM, EGTA 0.5 mM, Triton X-100 0.01%, MnCl2 5 mM. The kinase reaction was then initiated by the addition of ATP (2 μM) and the peptidic substrate STK1-biotin peptide (300 nM). After 2 hours of incubation at RT, the reaction was stopped and the unconsumed ATP depleted by the addition of ADP-Glo™ Reagent according to supplier instructions. After 40 minutes of incubation at RT, the Kinase Detection Reagent was then added to the assay plate according to supplier instructions. After 20 minutes of incubation at RT, the luminescence signal was measured with a plate-reading luminometer (PerkinElmer Envision or equivalent reader).
(In general: ADP-Glo first removes unused ATP, then detects ADP through luciferase.)

In assay [2] the test system is TLR7 induced IL-6 secretion in human mononuclear cells (PBMC's). The assay is described as follows: TLR7 induced IL-6 in human PBMC's. The assay is classed as cell-based. As to conditions: TLR7 ligand 2 uM overnight, IL-6 AlphaLISA. The method, then:
TLR7 Induced IL-6 in Human PBMC's
Human PBMC assay was used as one of the functional assays to monitor the activity of IRAK1 and IRAK4 small molecule inhibitors on TLR7 induced IL-6 secretion in human mononuclear cells (PBMC's). Human PBMCs were prepared from buffy coats (whole blood enriched with leukocytes and platelets) obtained from healthy volunteers used either fresh or frozen were plated in assay media (RPMI+2% P/S/L-glu+10% HI-FBS) and pre-treated with compounds in DMSO/media (range of concentrations from 25 uM to 0.4 nM) or controls (0.25% DMSO) for 30 minutes at 37° C. in assay media. Following pre-treatment with IRAK1 and IRAK4 inhibitors, PBMC's were stimulated with TLR7 specific ligand (2 uM) overnight (16-18 hrs) at 37° C. After incubation supernatant was transferred to 384 well PE AlphaPlate-384 and IL-6 was quantified using Perkin Elmer IL-6 Alpha LISA kit (AL223C). Plates were read on an Envision® plate reader with Alpha Technology®.
On the technique in general: Bead proximity is the source of the signal in Alpha formats.

The target of assay [3] is T2, IRAK1 (human purified recombinant enzyme His-TEV-IRAK1 (194-712)) (Homo sapiens, UniProt P51617).
T2 construct: His-TEV-IRAK1 (194-712); His (N); TEV cleavage site (N)
Put plainly: IRAK1 enzymatic assay (ADP-Glo luminescence). Format: biochemical. As to conditions: human recombinant IRAK1, ATP 1 μM. The method, then:
IRAK1 is a human purified recombinant enzyme (His-TEV-IRAK1 (194-712)). In this assay, IRAK1 hydrolysed ATP and autophosphorylated. Measurement of IRAK-1 inhibition was performed in 384-well format based on luminescence assay (ADP-Glo™ Kinase Assay from Promega). Purified human recombinant IRAK1 (0.3 μg/ml) and serial diluted compounds in DMSO (range of concentration from 10 μM to 0.5 nM) or controls (1% DMSO) were incubated for 15 minutes at RT in assay buffer containing 50 mM Hepes pH 7.0, Fatty acid-free BSA 0.1%, Dithiothreitol (DTT) 2 mM, MgCl2 10 mM, EGTA 0.5 mM, Triton X-100 0.01%. The kinase reaction was then initiated by the addition of ATP at a concentration of 1 μM. After 2 hours of incubation at RT, the reaction was stopped and the unconsumed ATP depleted by the addition of ADP-Glo™ Reagent according to supplier instructions. After 40 minutes of incubation at RT, the Kinase Detection Reagent was then added to the assay plate according to supplier instructions. After 20 minutes of incubation at RT, the luminescence signal was measured with a luminometer (PerkinElmer Envision or equivalent reader).

T2 sequence (P51617 194-712): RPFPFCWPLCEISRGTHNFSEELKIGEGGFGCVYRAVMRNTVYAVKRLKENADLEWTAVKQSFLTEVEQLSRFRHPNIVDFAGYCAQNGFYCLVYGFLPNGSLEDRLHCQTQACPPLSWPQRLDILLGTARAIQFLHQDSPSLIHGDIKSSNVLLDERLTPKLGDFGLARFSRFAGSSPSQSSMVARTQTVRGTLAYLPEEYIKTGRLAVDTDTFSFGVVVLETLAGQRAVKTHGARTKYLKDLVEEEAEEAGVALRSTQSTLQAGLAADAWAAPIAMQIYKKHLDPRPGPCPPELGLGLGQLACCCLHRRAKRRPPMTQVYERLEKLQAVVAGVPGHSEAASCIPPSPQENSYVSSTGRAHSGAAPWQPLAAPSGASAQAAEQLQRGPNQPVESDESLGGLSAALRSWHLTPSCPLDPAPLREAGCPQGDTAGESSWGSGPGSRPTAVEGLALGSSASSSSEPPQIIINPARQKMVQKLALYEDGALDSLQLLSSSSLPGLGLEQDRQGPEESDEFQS

Regarding `Cc1ccc(-n2nc(C(C)(C)C#N)cc2NC(=O)Nc2ccc(-c3csc4ncnc(N)c34)cc2Cl)cc1` [Example 22, 1-[4-(4-Amino-thieno[2,3-d]pyrimidin-5-yl)-2-chloro-phenyl]-3-[5-(cyano-dimethyl-methyl)-2-p-tolyl-2H-pyrazol-3-yl]-urea], the IC50 was 1000 to 5000 nM in assay [1], > 5000 nM in assay [2] and 100 to 1000 nM in assay [3].
For the compound `Cc1ccc(-n2nc(C(C)(C)C)cc2NC(=O)Nc2ccc(-c3nn(C)c4ncnc(N)c34)cc2F)cc1` [Example 4, 1-[4-(4-Amino-1-methyl-1H-pyrazolo[3,4-d]pyrimidin-3-yl)-2-fluoro-phenyl]-3-(5-tert-butyl-2-p-tolyl-2H-pyrazol-3-yl)-urea], the IC50 in assay [1], in assay [2] and in assay [3] was < 100 nM throughout.
As for `CC(C)c1ccc(-n2nc(C(C)(C)C)cc2NC(=O)Cc2ccc(-c3nn(C)c4ncnc(N)c34)cc2)cc1` [Example 15, 2-[4-(4-Amino-1-methyl-1H-pyrazolo[3,4-d]pyrimidin-3-yl)-phenyl]-N-[5-tert-butyl-2-(4-isopropyl-phenyl)-2H-pyrazol-3-yl]-acetamide], the IC50 was 1000 to 5000 nM in assay [1], 1000 to 5000 nM in assay [2] and < 100 nM in assay [3].
As to `CC(C)c1ccc(-n2nc(C(C)(C)C)cc2NC(=O)Nc2ccc(-c3nn(C)c4ccnc(N)c34)cc2)cc1` [Example 14, 1-[4-(4-Amino-1-methyl-1H-pyrazolo[4,3-c]pyridin-3-yl)-phenyl]-3-[5-tert-butyl-2-(4-isopropyl-phenyl)-2H-pyrazol-3-yl]-urea], the IC50 in assay [1] was 100 to 1000 nM; in assay [2], < 100 nM; in assay [3], < 100 nM.
Take `Cc1ccc(-n2nc(C(C)(C)C)cc2NC(=O)Nc2ccc(-c3nn(C)c4ccnc(N)c34)cc2F)cc1` [Example 26, 1-[4-(4-Amino-1-methyl-1H-pyrazolo[4,3-c]pyridin-3-yl)-2-fluoro-phenyl]-3-(5-tert-butyl-2-p-tolyl-2H-pyrazol-3-yl)-urea]: the IC50 in assay [1] was 100 to 1000 nM; in assay [2] it was < 100 nM; in assay [3], < 100 nM.
On to `CC(C)c1ccc(-n2nc(C(C)(C)C)cc2NC(=O)Nc2ccc(-c3nn(C)c4ncnc(N)c34)cc2F)cc1` [Example 9, 1-(4-{4-amino-1-methyl-1H-pyrazolo[3,4-d]pyrimidin-3-yl}-2-fluorophenyl)-3-{3-tert-butyl-1-[4-(propan-2-yl)phenyl]-1H-pyrazol-5-yl}urea], for which the IC50 in assay [1], in assay [2] and in assay [3] was < 100 nM in each case.
With `Cc1ccc(-n2nc(C(C)(C)CO)cc2NC(=O)Nc2ccc(-c3csc4ncnc(N)c34)cc2Cl)cc1` [Example 21, 1-(4-{4-aminothieno[2,3-d]pyrimidin-5-yl}-2-chlorophenyl)-3-[3-(1-hydroxy-2-methylpropan-2-yl)-1-(4-methylphenyl)-1H-pyrazol-5-yl]urea], the IC50 was > 5000 nM in assay [1], > 5000 nM in assay [2] and 100 to 1000 nM in assay [3].
In the case of `CC(C)c1ccc(-n2nc(C(C)(C)C)cc2NC(=O)Nc2ccc(-c3nn(C)c4ncnc(N)c34)c(F)c2)cc1` [Example 3, 1-[4-(4-Amino-1-methyl-1H-pyrazolo[3,4-d]pyrimidin-3-yl)-3-fluoro-phenyl]-3-[5-tert-butyl-2-(4-isopropyl-phenyl)-2H-pyrazol-3-yl]-urea], the IC50 in assay [1] is 100 to 1000 nM; in assay [2], < 100 nM; in assay [3], < 100 nM.
As for `Cc1ccc(-n2nc(C(C)(C)C)cc2NC(=O)C(O)c2ccc(-c3nn(C)c4ncnc(N)c34)cc2)cc1` (stereo not drawn) [Example 19, 2-[4-(4-Amino-1-methyl-1H-pyrazolo[3,4-d]pyrimidin-3-yl)-phenyl]-N-(5-tert-butyl-2-p-tolyl-2H-pyrazol-3-yl)-2-hydroxy-acetamide], the IC50 was 100 to 1000 nM in assay [1], 100 to 1000 nM in assay [2] and < 100 nM in assay [3].
Turning to `Cc1ccc(-n2nc(C(C)(C)C)cc2NC(=O)Nc2ccc(-c3csc4ncnc(N)c34)cc2)cc1` [Example 12, 1-[4-(4-Amino-thieno[2,3-d]pyrimidin-5-yl)-phenyl]-3-(5-tert-butyl-2-p-tolyl-2H-pyrazol-3-yl)-urea], the figures for the IC50 in assay [1], in assay [2] and in assay [3] were 100 to 1000 nM, < 100 nM and < 100 nM, respectively.
`CC(C)c1ccc(-n2nc(C(C)(C)C)cc2NC(=O)Nc2ccc(-c3nn(C)c4ncnc(N)c34)cc2)cc1` [Example 1, 1-(4-{4-amino-1-methyl-1H-pyrazolo[3,4-d]pyrimidin-3-yl}phenyl)-3-{3-tert-butyl-1-[4-(propan-2-yl)phenyl]-1H-pyrazol-5-yl}urea]: the values for the IC50 in assay [1], in assay [2] and in assay [3] were 100 to 1000 nM, < 100 nM and < 100 nM, respectively.
For the compound `Cc1ccc(-n2nc(C(C)(C)C)cc2NC(=O)Nc2ccc(-c3nn(C)c4ncnc(N)c34)c(Cl)c2)cc1` [Example 8, 1-[4-(4-Amino-1-methyl-1H-pyrazolo[3,4-d]pyrimidin-3-yl)-3-chloro-phenyl]-3-(5-tert-butyl-2-p-tolyl-2H-pyrazol-3-yl)-urea], the IC50 in assay [1], in assay [2] and in assay [3] was < 100 nM each time.
For `Cc1ccc(-n2nc(C(C)(C)C)cc2NC(=O)Nc2ccc(-c3csc4ncnc(N)c34)c(Cl)c2)cc1` [Example 10, 1-[4-(4-Amino-thieno[2,3-d]pyrimidin-5-yl)-3-chloro-phenyl]-3-(5-tert-butyl-2-p-tolyl-2H-pyrazol-3-yl)-urea], the IC50 in assay [1] was 100 to 1000 nM; in assay [2] it was < 100 nM; in assay [3], < 100 nM.
`Cc1ccc(-n2nc(C(C)(C)C)cc2NC(=O)Nc2ccc(-c3csc4ncnc(N)c34)cc2F)cc1` [Example 7, 1-[4-(4-Amino-thieno[2,3-d]pyrimidin-5-yl)-2-fluoro-phenyl]-3-(5-tert-butyl-2-p-tolyl-2H-pyrazol-3-yl)-urea]: the IC50 in assay [1], in assay [2] and in assay [3] was < 100 nM in each case.
With `Cc1ccc(-n2nc(C(C)(C)C)cc2NC(=O)C(=O)c2ccc(-c3nn(C)c4ncnc(N)c34)cc2)cc1` [Example 20, 2-[4-(4-Amino-1-methyl-1H-pyrazolo[3,4-d]pyrimidin-3-yl)-phenyl]-N-(5-tert-butyl-2-p-tolyl-2H-pyrazol-3-yl)-2-oxo-acetamide], the IC50 in assay [1] is < 100 nM; in assay [2], 1000 to 5000 nM; in assay [3], < 100 nM.
